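Test compounds were applied to cells in 96-well plates for 48 hours at 5 doses. GI50 marks 50% less growth.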 The source made the active and inactive calls. Cut-off read from the data, not from the text of the source: active = GI50 up to about 1.1 µM and inactive = higher.
Experiments:
Assay in all cases: NCI anticancer screen, dose series, 48 h
[1] = test system: CCRF-CEM
[2] = test system: EKVX
[3] = test system: OVCAR-4
[4] = test system: SW-620
[5] = test system: SNB-75
[6] = test system: IGROV-1
[7] = test system: LOX IMVI
[8] = test system: A549
[9] = test system: HCC 2998
[10] = test system: NCI-H460
[11] = test system: SN12C
[12] = test system: MOLT-4
[13] = test system: UACC-62
[14] = test system: CAKI-1
[15] = test system: OVCAR-8
[16] = test system: SF-539
[17] = test system: UACC-257
[18] = test system: SK-MEL-28
[19] = test system: HCT-116
[20] = test system: OVCAR-5

Measured: GI50

C/C(=N\NC(=O)c1ccncc1)c1cccc(C(F)(F)F)c1
inactive: [1] > 10 µM | [2] > 10 µM | [3] > 10 µM | [4] > 10 µM | [5] > 10 µM | [6] > 10 µM | [7] > 10 µM | [8] > 10 µM | [9] > 10 µM | [10] > 10 µM | [11] > 10 µM | [12] > 10 µM | [13] > 10 µM | [14] > 10 µM | [15] > 10 µM | [16] > 10 µM | [17] > 10 µM | [18] > 10 µM

N=C(N)c1csc([C@@H]2O[C@H](CO)[C@@H](O)[C@H]2O)n1
inactive: [1] > 100 µM | [2] > 100 µM | [3] > 100 µM | [4] > 100 µM | [5] 80.9 µM | [19] > 100 µM | [6] > 100 µM | [7] > 100 µM | [8] > 100 µM | [9] > 100 µM | [10] > 100 µM | [11] > 100 µM | [12] > 100 µM | [14] > 100 µM | [15] > 100 µM | [16] > 100 µM | [17] > 100 µM | [18] > 100 µM

CN(C)CCNC(=O)c1cccc2c1Nc1ccccc1S2
inactive: [1] 12.4 µM | [2] 5.45 µM | [3] 13.4 µM | [4] 16.7 µM | [5] 6.81 µM | [19] 12.2 µM | [6] 11.3 µM | [7] 12.2 µM | [8] 14.7 µM | [9] 13.9 µM | [10] 11.2 µM | [20] 13.4 µM | [11] 13 µM | [12] 10.6 µM | [13] 14.6 µM | [15] 15.8 µM | [16] 15.2 µM | [17] 13.7 µM | [18] 14.4 µM

CCOC(=O)NC(=O)c1cn(C2CCCCC2)c(=O)n(C)c1=O
inactive: [1] > 100 µM | [3] > 100 µM | [4] > 100 µM | [5] > 100 µM | [19] > 100 µM | [6] > 100 µM | [7] > 100 µM | [8] > 100 µM | [9] > 100 µM | [10] > 100 µM | [20] > 100 µM | [11] > 100 µM | [12] > 100 µM | [13] > 100 µM | [14] > 100 µM | [15] > 100 µM | [16] > 100 µM | [17] > 100 µM | [18] > 100 µM

CC1=NN(C(=O)c2ccccc2)C(=O)C1/N=N/c1ccccc1C(=O)O (configuration not stated)
inactive: [1] 3.81 µM | [2] > 100 µM | [3] 5.62 µM | [4] 16.8 µM | [5] 1.8 µM | [19] 3.24 µM | [6] 4.14 µM | [7] 11.5 µM | [8] 3.77 µM | [9] 19.8 µM | [10] 3.67 µM | [20] > 73.1 µM | [11] 7.26 µM | [12] 4.09 µM | [13] 3.1 µM | [14] 6.53 µM | [15] 7.87 µM | [16] 3.78 µM | [18] 89.1 µM

CCOC(=O)/C=C(\C)c1ccc(C)cc1C
inactive: [1] 49.2 µM | [2] > 100 µM | [3] > 100 µM | [4] 17.8 µM | [5] 75.3 µM | [19] > 100 µM | [6] > 100 µM | [7] 16.3 µM | [8] > 100 µM | [9] > 100 µM | [10] > 100 µM | [20] > 100 µM | [11] 39.8 µM | [12] > 100 µM | [14] > 100 µM | [15] > 100 µM | [16] > 100 µM | [17] > 100 µM | [18] 21.9 µM

CNC(=O)OCc1nc(SC)n(C)c1CO
inactive: [1] > 100 µM | [2] > 100 µM | [3] > 100 µM | [4] > 100 µM | [5] > 100 µM | [19] > 100 µM | [6] > 100 µM | [7] > 100 µM | [8] > 100 µM | [9] > 100 µM | [10] > 100 µM | [20] > 100 µM | [11] > 100 µM | [12] > 100 µM | [13] > 100 µM | [14] > 100 µM | [15] > 100 µM | [16] > 100 µM | [17] > 100 µM | [18] > 100 µM

Cc1c(-c2cc3n(n2)C(c2cccs2)C(C#N)=C(c2ccccc2)N3)c(=O)n(-c2ccccc2)n1C (configuration not stated)
inactive: [1] > 95.1 µM | [2] > 100 µM | [3] > 87.9 µM | [4] > 100 µM | [5] > 55.1 µM | [19] > 75.7 µM | [6] 87.7 µM | [7] 38.5 µM | [8] > 100 µM | [9] > 100 µM | [10] 76.9 µM | [20] > 100 µM | [11] > 80.2 µM | [12] > 72.6 µM | [13] > 100 µM | [14] 11.1 µM | [15] > 100 µM | [16] > 100 µM | [17] 49.2 µM | [18] > 100 µM

O=C1CC2(CCC(O)(c3ccccc3)C(C(=O)c3ccccc3)C2)C(=O)c2ccccc2N1 (configuration not stated)
inactive: [1] 46.8 µM | [2] > 100 µM | [3] 38.2 µM | [4] > 100 µM | [5] > 100 µM | [19] > 100 µM | [6] > 100 µM | [7] > 100 µM | [8] > 100 µM | [9] > 100 µM | [10] > 100 µM | [20] > 100 µM | [11] > 100 µM | [12] > 100 µM | [13] > 100 µM | [14] > 100 µM | [15] > 100 µM | [16] > 100 µM | [17] > 100 µM | [18] > 100 µM

Cc1c2cc[n+](C)cc2c(COC2OC(CO)C(O)C2O)c2c3ccccc3n(C)c12 (configuration not stated)
inactive: [1] > 87.9 µM | [2] > 95.5 µM | [3] > 100 µM | [4] > 100 µM | [5] 25 µM | [19] > 100 µM | [6] > 100 µM | [7] > 100 µM | [8] 74.3 µM | [9] > 100 µM | [10] 19.2 µM | [20] > 100 µM | [11] 6.85 µM | [12] 45.5 µM | [13] > 96.8 µM | [14] > 100 µM | [15] 99.1 µM | [16] 90.4 µM | [17] > 100 µM | [18] 53 µM
